Reference: PMC3237907 (Nano letters, 2011)

Target: T1, ParM mutant (His6/K33A/D63C/T174A/T175N/D224C/C287A), TMR-labelled ADP sensor (Escherichia coli, UniProt P11904, C287A/D224C/D63C/K33A/T174A/T175N)
T1 sequence (P11904 1-320 K33A/D63C/T174A/T175N/D224C/C287A): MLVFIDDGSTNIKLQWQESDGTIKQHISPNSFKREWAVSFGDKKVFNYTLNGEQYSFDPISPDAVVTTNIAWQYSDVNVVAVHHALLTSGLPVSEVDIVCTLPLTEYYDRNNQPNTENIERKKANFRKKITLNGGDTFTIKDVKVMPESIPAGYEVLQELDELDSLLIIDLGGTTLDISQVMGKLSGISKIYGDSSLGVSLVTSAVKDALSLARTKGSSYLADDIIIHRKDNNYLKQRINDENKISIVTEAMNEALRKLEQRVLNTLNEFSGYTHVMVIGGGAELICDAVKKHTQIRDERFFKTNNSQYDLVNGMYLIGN
Assay: single-molecule TIRF, TMR self-quenching
Type: binding

`Nc1ncnc2c1ncn2[C@@H]1O[C@H](COP(=O)(O)OP(=O)(O)O)[C@@H](O)[C@H]1O` [ADP] was tested, and the Kd was 20 ± 3 µM.
